Results as given in patent publication EP4428121A1, “MODULATORS OF SORTILIN ACTIVITY” (Vesper Bio Aps, priority 2023, dated 2024).

Experiments:
h-Sortilin = target: T1, h-Sortilin (Homo sapiens, UniProt Q99523); assay: Neurotensin scintillation proximity assay (SPA); conditions: displacement of [3H]-neurotensin binding to h-Sortilin; 150 nM 6his-Sortilin, 5 nM [3H]-Neurotensin; average of at least 2 determinations
T1 sequence (Q99523 78-831): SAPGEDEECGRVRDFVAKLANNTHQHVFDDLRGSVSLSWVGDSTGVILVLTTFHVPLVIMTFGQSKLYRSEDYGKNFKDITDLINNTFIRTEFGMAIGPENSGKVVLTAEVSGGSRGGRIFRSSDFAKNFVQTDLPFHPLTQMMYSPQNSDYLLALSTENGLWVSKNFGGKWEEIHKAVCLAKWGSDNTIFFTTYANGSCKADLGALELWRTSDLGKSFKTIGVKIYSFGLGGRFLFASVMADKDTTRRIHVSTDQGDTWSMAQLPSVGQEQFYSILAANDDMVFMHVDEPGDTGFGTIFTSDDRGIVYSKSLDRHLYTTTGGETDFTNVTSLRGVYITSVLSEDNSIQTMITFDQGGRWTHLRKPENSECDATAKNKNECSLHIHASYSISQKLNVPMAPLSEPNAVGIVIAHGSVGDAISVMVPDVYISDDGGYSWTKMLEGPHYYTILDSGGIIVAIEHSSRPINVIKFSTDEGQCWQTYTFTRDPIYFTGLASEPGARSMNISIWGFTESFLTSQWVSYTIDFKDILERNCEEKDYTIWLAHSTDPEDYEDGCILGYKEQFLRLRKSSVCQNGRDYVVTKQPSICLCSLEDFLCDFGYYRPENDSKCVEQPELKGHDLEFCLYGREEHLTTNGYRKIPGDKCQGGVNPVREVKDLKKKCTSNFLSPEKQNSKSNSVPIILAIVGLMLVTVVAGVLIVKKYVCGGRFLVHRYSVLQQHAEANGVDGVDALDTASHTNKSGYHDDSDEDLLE
Experimental: NTS, which is a 13 amino acid neuropeptide, is a sortilin ligand.
Compound affinity was determined by measuring the displacement of [^3H]-neurotensin binding to h-Sortilin in SPA format. Total volume of 40 µl in 50 mM HEPES pH 7.4 assay buffer containing 100 mM NaCl, 2.0 mM CaCl2, 0.1% BSA and 0.1% Tween-20. Compound pre-incubation for 30 minutes at room temperature with 150 nM of 6his-Sortilin before 5 nM [3H]-Neurotensin and Ni chelate imaging beads (Perkin Elmer) were added, after 6 hours the plate was read on a ViewLux with 360 s exposure time. Dose-response evaluation of compounds was performed with 8 concentrations of drugs (covering 3 decades). IC50 values were calculated by nonlinear regression using the sigmoid concentration-response (variable slope) using CDD Vault software. All values reported are average of at least 2 determinations.

Human (6-His)Sortilin = target: T2, Human (6-His)Sortilin (Homo sapiens, UniProt Q99523); assay: Human Sortilin GCI (Grating-Coupled Interferometry) binding assay; conditions: Creoptix WAVE-RAPID, single concentration (usually 1 µM, 10 µM or 100 µM), immobilised Human (6-His)Sortilin, 1:1 kinetic binding model
T2 construct: purchased RnD Systems
T2 sequence (Q99523 78-755 limits assumed): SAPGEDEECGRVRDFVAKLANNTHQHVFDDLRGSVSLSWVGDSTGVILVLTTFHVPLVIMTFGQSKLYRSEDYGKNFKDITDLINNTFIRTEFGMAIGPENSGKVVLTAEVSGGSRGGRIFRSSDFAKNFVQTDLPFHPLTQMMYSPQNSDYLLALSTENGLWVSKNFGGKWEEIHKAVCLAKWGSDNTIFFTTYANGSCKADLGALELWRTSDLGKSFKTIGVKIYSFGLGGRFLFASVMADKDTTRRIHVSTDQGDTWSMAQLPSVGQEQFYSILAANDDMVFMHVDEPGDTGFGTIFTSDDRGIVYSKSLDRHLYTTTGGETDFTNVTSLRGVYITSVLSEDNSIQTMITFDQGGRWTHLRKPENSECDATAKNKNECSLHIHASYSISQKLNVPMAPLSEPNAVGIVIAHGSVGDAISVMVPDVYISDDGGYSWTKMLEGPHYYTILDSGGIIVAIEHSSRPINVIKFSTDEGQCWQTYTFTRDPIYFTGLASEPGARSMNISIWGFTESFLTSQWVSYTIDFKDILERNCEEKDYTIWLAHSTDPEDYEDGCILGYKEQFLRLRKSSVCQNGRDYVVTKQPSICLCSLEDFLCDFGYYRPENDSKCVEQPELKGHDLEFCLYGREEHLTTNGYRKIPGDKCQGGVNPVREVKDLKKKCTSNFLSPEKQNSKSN

SMILES | IC50 (h-Sortilin) | Kd (Human (6-His)Sortilin)
CC(C)(C)CCC(Nc1ccccn1)c1nn[nH]n1 (racemic) [Example 68, N-2-pyridyl[4,4-dimethyl-1-(2H-tetraazol-5-yl)pentyl]amine] | 10000 nM | 7570 nM
CC(C)(C)CCC(Nc1cccnc1)c1nn[nH]n1 (racemic) [Example 69, N-3-pyridyl[4,4-dimethyl-1-(2H-tetraazol-5-yl)pentyl]amine] | 10000 nM | 1800 nM
CC(C)(C)CC[C@H](Nc1cnccn1)C(=O)O [Example 4, (S)-5,5-dimethyl-2-(2-pyrazinylamino)hexanoic acid] | 1080 nM | 5570 nM
CC(C)(C)CC[C@H](Nc1cncnc1)C(=O)O [Example 6, (S)-5,5-dimethyl-2-(5-pyrimidinylamino)hexanoic acid] | 1240 nM | 4050 nM
CC(C)(C)CC[C@H](Nc1ccncn1)C(=O)O [Example 7, (S)-5,5-dimethyl-2-(4-pyrimidinylamino)hexanoic acid] | 1140 nM | 8280 nM
Cc1cc(N[C@@H](CCC(C)(C)C)C(=O)O)nc(C)n1 [Example 25, (S)-2-(2,6-dimethyl-4-pyrimidinylamino)-5,5-dimethylhexanoic acid] | 1560 nM | 499 nM
Cc1cncc(N[C@@H](CCC(C)(C)C)C(=O)O)n1 [Example 27, (S)-5,5-dimethyl-2-(6-methyl-2-pyrazinylamino)hexanoic acid] | 510 nM | 664 nM

Further lines, results first:

IC50 (h-Sortilin) | Kd (Human (6-His)Sortilin) | SMILES
2200 nM | 2230 nM | CC(C)(C)CC[C@H](Nc1ccccn1)C(=O)O [Example 2, (S)-5,5-dimethyl-2-(2-pyridylamino)hexanoic acid]
1190 nM | 13200 nM | CC(C)(C)CC[C@H](Nc1ncccn1)C(=O)O [Example 5, (S)-5,5-dimethyl-2-(2-pyrimidinylamino)hexanoic acid]
325 nM | 116 nM | CC(C)(C)CC[C@H](Nc1ncnc2ccccc12)C(=O)O [Example 8, (S)-5,5-dimethyl-2-(4-quinazolinylamino)hexanoic acid]
1310 nM | 108 nM | Cc1nccc(N[C@@H](CCC(C)(C)C)C(=O)O)n1 [Example 23, (S)-5,5-dimethyl-2-(2-methyl-4-pyrimidinylamino)hexanoic acid]
2870 nM | 429 nM | Cc1cc(N[C@@H](CCC(C)(C)C)C(=O)O)ncn1 [Example 24, (S)-5,5-dimethyl-2-(6-methyl-4-pyrimidinylamino)hexanoic acid]
1830 nM | 54.1 nM | Cc1cccc2c(N[C@@H](CCC(C)(C)C)C(=O)O)ncnc12 [Example 26, (S)-5,5-dimethyl-2-(8-methyl-4-quinazolinylamino)hexanoic acid]
670 nM | 525 nM | CC(C)(C)CC[C@H](Nc1cncc(Oc2ccccc2)n1)C(=O)O [Example 28, (S)-5,5-dimethyl-2-(6-phenoxy-2-pyrazinylamino)hexanoic acid]
1810 nM | 1710 nM | CC(C)(C)CC[C@H](Nc1cccnc1)C(=O)O [Example 31, (S)-5,5-dimethyl-2-(3-pyridylamino)hexanoic acid]
